According to article PMC6627486, “Ipomoeassin F Binds Sec61α to Inhibit Protein Translocation” (Journal of the American Chemical Society, 2019):

Key:
[1] = system: MDA-MB-231, MCF7, MCF-10A; assay: Cytotoxicity relative to ipomoeassin F across the cell lines of Table 1; assay type: cell-based, human; details: depending on the cell type (Table 1)
Method: Two human breast cancer cell lines (MDA-MB-231 and MCF7) and one human breast non-tumorigenic epithelial cell line (MCF-10A) were maintained in a DMEM high glucose culture medium supplemented with 10% fetal bovine serum (FBS) and 2 mM L-glutamine. The cells were grown in a humidified atmosphere of 5% CO2 and 95% air at 37 °C . The culture medi um w as changed every 2–4 days depending on cell density. Cell cultures were passaged once a week using 0.125% trypsin-EDTA to detach the cells from culture flasks/dishes.
The human colorectal cancer cell line HCT116 was maintained in McCoy’s 5A (modified) medium supplemented with 10% fetal bovine serum (FBS). […]
Viable cells were counted with a hemocytometer immediately before each experiment. […] Absorbance of formazan was detected by a microplate reader (BioTek Synergy H1) at 570 nm with 650 nm as the reference wavelength. The percentage of viability compared to the negative control (DMSO-treated cells) was determined . […]
MDA-MB-231, MCF-10A and HCT116. Viable cells were counted with a hemocytometer immediately before each experiment . […] Emission of each well at 620 nm was detected by a microplate reader (BioTek Synergy H1) at excitation 580 nm. […] Cells were treated for 96 h, then viability measured with AlamarBlue, detected using the conditions described but with a BMG Fluostar Optima Microplate Reader. […]

[2] = system: secNLuc-ATZ secretion in U2-OS cells; assay: U2-OS secNLuc-ATZ secretion assay; assay type: cell-based; details: Homo sapiens, U2OS, 24 h, read-out: secNLuc-ATZ secretion inhibition EC50
Method: The secNLuc-ATZ assay has been described elsewhere.18 Briefly, U2-OS cells stably expressing secNLuc-ATZ were cultured in McCoy’s 5A supplemented with 10% bovine growth serum (Hyclone SH30540.03), 50 units/mL penicillin, and 50 µg/mL streptomycin and plated into 1536-well black, clear-bottom treatment plates (Aurora Microplates #ABI121000A) at 1200 cells/well in 5 µL volume using a Multidrop Combi dispenser (ThermoFisher). Cells were returned to 37 °C for 1 h to adhere and compound or vehicle control was added to wells using a 1536-well pin-tool transfer device (Wako Automation, San Diego). Cells were incubated for 24 h and secNLuc-ATZ-containing media was transferred using an ATS-100 acoustic dispenser (EDC Biosystems, Fremont, CA) from the treatment plate to a white, solid-bottom 1536-well recipient plate (Greiner Bio One #789175-F) containing 3 µL/well of 1X PBS. […]
Cells were incubated at 37 °C for 24 h and secreted luciferase was detected by adding 1 µL of coelenterazine substrate to each well using a BioRAPTR FRD workstation. […]
Luminescence was measured using a ViewLux microplate imager equipped with clear filters.
For cell viability assays, cells were cultured, plated, and treated with test compounds as outlined for the secretion assays. 48 h after treatment, viability was assessed using a CellTiter-Glo assay by adding 3

C/C=C(\C)C(=O)O[C@H]1[C@H](OC(=O)/C=C/c2ccc(OCc3cn(CCOCCOCCOCCNC(=O)CCCC[C@@H]4SC[C@@H]5NC(=O)N[C@@H]54)nn3)cc2)[C@@H](O)[C@@H]2O[C@H]3[C@H](O[C@@H](CCCCC)CCCCCCC(=O)CCC(=O)OC[C@H]1O2)O[C@H](C)[C@H](OC(C)=O)[C@@H]3O [compound 5]
decrease in potency versus ipomoeassin F [1]: ~5 fold

C/C=C(\C)C(=O)O[C@@H]1[C@@H](O)[C@@H]2O[C@H]3[C@H](O[C@@H](CCCCC)CCCCCCC(=O)CCC(=O)OC[C@@H](O2)[C@H]1OC(=O)/C=C/c1ccccc1)O[C@H](C)[C@H](OC(C)=O)[C@@H]3O [ipomoeassin F]
EC50 [2]: ~5 nM
